Values quoted from earlier work as cited in patent US20130210031A1 (priority 2010, published 2013).

Molecular target: EF (Bacillus anthracis, UniProt P40136)
Sequence (P40136 whole entry, looked up): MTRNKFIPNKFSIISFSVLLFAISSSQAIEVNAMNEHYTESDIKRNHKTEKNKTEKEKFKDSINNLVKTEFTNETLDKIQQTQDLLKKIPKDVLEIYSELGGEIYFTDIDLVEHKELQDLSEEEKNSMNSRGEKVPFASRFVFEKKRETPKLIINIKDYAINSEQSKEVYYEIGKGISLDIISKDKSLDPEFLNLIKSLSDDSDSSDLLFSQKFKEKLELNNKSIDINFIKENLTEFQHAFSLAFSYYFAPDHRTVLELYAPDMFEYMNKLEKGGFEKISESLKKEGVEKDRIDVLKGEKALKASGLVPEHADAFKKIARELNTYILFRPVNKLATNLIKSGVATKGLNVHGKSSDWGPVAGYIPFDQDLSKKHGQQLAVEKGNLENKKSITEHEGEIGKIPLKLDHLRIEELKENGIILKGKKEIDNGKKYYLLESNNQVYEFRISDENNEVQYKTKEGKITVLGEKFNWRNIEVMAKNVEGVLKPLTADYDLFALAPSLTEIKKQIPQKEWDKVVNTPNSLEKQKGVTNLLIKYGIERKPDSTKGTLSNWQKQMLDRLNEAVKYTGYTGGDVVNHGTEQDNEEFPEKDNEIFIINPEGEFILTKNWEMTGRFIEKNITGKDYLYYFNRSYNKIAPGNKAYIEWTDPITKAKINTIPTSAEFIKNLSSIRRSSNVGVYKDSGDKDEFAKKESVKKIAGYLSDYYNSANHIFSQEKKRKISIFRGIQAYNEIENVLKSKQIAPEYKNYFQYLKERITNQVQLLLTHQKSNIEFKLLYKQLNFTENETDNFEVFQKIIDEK

In the case of `CC(C)(C)C(=O)OCOP(=O)(COCCn1cnc2c(N)ncnc21)OCOC(=O)C(C)(C)C` [adefovir dipivoxil], the EF inhibitor potency is given as “potent EF inhibitor”.
